ChEMBL document CHEMBL2069232, “Novel structural insights for imidoselenocarbamates with antitumoral activity related to their ability to generate methylselenol” (Bioorg Med Chem, 2012)
The source made the active and inactive calls. The calls are words filed in the database; no cut-off is given here. Numbered stars: 1 amine (or outer) side, 2 acyl side, 3 side chain; on linkers, the order of the positions; unused ones are H or OH. Bridge positions count the residues as written; N and C are the ends. Square brackets hold non-standard residues; d marks the D form. Peptide text beside a SMILES is read from it. I, II: the chains in the order shown. Actinocin(1to9) = Cc1c2oc3c(C)ccc(C(=O)[*:2])c3nc-2c(C(=O)[*:1])c(N)c1=O; NMeV = CN[C@H](C(=O)O)C(C)C; Sar = CNCC(=O)O

What was measured:
[1] = system: NCI-H157; test: Induction of apoptosis in human NCI-H157 cells at 10 uM incubated for 5 hrs in serum-free medium by annexin V/propidium iodide staining by flow cytometry; assay type: functional, cell-based
[2] = Induction of methylselenol release in pH 8.0 phosphate buffer containing 100 mM Na2PO4, 1 mM EDTA and 100 uM DTNB; assay type: physicochemical
[3] = Induction of methylselenol release in phenol-red free RPMI 1640 medium containing 100 uM DTNB; assay type: physicochemical
[4] = system: NCI-H157; test: Induction of apoptosis in human NCI-H157 cells assessed as apoptotic cell level at 10 uM incubated for 5 hrs in serum-free medium by annexin V/propidium iodide staining by flow cytometry; assay type: functional
[5] = system: NCI-H157; test: Induction of apoptosis in human NCI-H157 cells assessed as necrotic cell level at 10 uM incubated for 5 hrs in serum-free medium by annexin V/propidium iodide staining by flow cytometry; assay type: functional
[6] = system: NCI-H157; test: Induction of apoptosis in human NCI-H157 cells assessed as damaged cell level at 10 uM incubated for 5 hrs in serum-free medium by annexin V/propidium iodide staining by flow cytometry; assay type: functional
[7] = system: NCI-H157; test: Induction of apoptosis in human NCI-H157 cells assessed as live cell level at 10 uM incubated for 5 hrs in serum-free medium by annexin V/propidium iodide staining by flow cytometry; assay type: functional, cell-based

SMILES | Activity [1] | t1/2 [2] [h] | t1/2 [3] [h] | Activity [4] [%] | Activity [5] [%] | Activity [6] [%] | Activity [7]
COc1ccc(C(=O)/N=C(\NC(=O)c2ccc(OC)cc2OC)[Se]C)c(OC)c1 | inactive | – | – | – | – | – | –
C[Se]/C(=N\C(=O)c1ccc(C)cc1)NC(=O)c1ccc(C)cc1 | inactive | – | – | – | – | – | –
CS/C(=N/C(=O)c1cccnc1)NC(=O)c1cccnc1 | – | 1333 | 24 | – | – | – | –
Cc1c2oc3c(C)ccc(C(=O)N[C@@H]4C(=O)N[C@H](C(C)C)C(=O)N5CCC[C@H]5C(=O)N(C)CC(=O)N(C)[C@@H](C(C)C)C(=O)O[C@@H]4C)c3nc-2c(C(=O)N[C@@H]2C(=O)N[C@H](C(C)C)C(=O)N3CCC[C@H]3C(=O)N(C)CC(=O)N(C)[C@@H](C(C)C)C(=O)O[C@@H]2C)c(N)c1=O [DACTINOMYCIN] (I: T[dV]P[Sar][NMeV] / II: T[dV]P[Sar][NMeV]; ester I:1-I:C, II:1-II:C; linker I:N-II:N via Actinocin(1to9)) | – | – | – | 9 | 3 | 23 | Active
C[Se]/C(=N/C(=O)c1cccnc1)NC(=O)c1cccnc1 | Active | 26 | 2.9 | 11 | 5 | 28 | Active
C[Se]/C(=N/C(C)=O)NC(C)=O | Active | 9.2 | 0.82 | – | – | – | –
C[Se]/C(=N\C(=O)c1ccccc1)NC(=O)c1ccccc1 | inactive | – | – | – | – | – | –
C[Se]/C(=N\C(=O)c1ccc(C(F)(F)F)cc1)NC(=O)c1ccc(C(F)(F)F)cc1 | inactive | – | – | – | – | – | –
CS/C(=N/C(=O)c1cccnc1Cl)NC(=O)c1cccnc1Cl | – | 917 | 31 | – | – | – | –
C[Se]/C(=N/C(=O)c1cccnc1Cl)NC(=O)c1cccnc1Cl | Active | 40 | 4.7 | – | – | – | –
